According to the NIST ThermoML archive (doi:10.1016/j.fluid.2013.01.026):
Numbers after ± are expanded uncertainties.

Conditions: Crystal; Melting Point Apparatus

Compound | Normal melting temperature [°C]
O=c1cc(-c2ccc(O)c(O)c2)oc2cc(O)cc(O)c12 [5,7,3',4'-tetrahydroxyflavone] | 337.38 ± 0.2
C[C@@H]1O[C@@H](OC[C@H]2O[C@@H](Oc3c(-c4ccc(O)c(O)c4)oc4cc(O)cc(O)c4c3=O)[C@H](O)[C@@H](O)[C@@H]2O)[C@H](O)[C@H](O)[C@H]1O [rutin] | 177.20 ± 0.2
